Measured values as given in patent US9643032B2, “Application of dehydroascorbic acid or derivatives/isomers thereof for artificially coloring the skin” (L'Oreal, priority 2007, dated 2017).

Test system: Episkin model of reconstructed skin
Test: Skin coloring on the Episkin model of reconstructed skin, spectrocolorimeter measurement after washing
Type: cell-based
Description: The products are evaluated on the Episkin model of reconstructed skin after 18 days of culturing. The crucibles are placed on Whatman paper. 20 μl of a 5 wt % solution of test product in a 50% water/50% ethanol mixture. […] A second rinse is performed with 1 ml of water. The residual liquid is absorbed using a soft paper tissue. The measurements are taken using a Minolta CM-2600d spectrocolorimeter.
Spectrocolorimeter Minolta CM2600d
The results are expressed in the system (L*, a*, b*) dans lequel L* is the luminance, a* is the red-green axis (−a*=green, +a*=red) and b* is the yellow/blue axis (−b*=blue, +b*=yellow). Therefore, a* and b* express the coloring of the skin.
The color deviation is obtained with the color deviation formula of Hunter in the calorimetric domain L, a, b: (ΔE)^2=[(ΔL)^2+(Δa)^2+(Δb)^2]. ΔE is the darkening, the global intensity of the color: The more ΔE is important the more the color darkened.

[1] = 5 wt % solution in 50% water/50% ethanol, 20 μl, after 24 hours, after washing

O=C1OC(C(O)CO)C(=O)C1=O (stereo not drawn) [Dehydroascorbic acid, threo-2,3-hexodiulosono-1,4-lactone, 9CI] was tested, and the “L* (luminance / intensity)” value [1] was 77.7, the “a* (red component)” value [1] was 4.8 and the “b* (yellow component)” value [1] was 35. The “ΔE*ab (color deviation, darkening)” value (5 wt % solution, after 24 hours, after washing, deviation versus Episkin alone) was 14.6 and the “Shade obtained compared with DHA” value (concentration equal to 5 wt %) was “stronger shade with a more pronounced dominant red”.
